Measurements taken from patent US10364234B2, “Pyridinecarboxamide derivatives, preparation method thereof and pharmaceutical uses thereof” (Jiangsu Hengrui Medicine Co., Ltd., priority 2014, dated 2019).

How the values were obtained:
[1] = Solubility observed when preparing the dosing formulation; assay type: physicochemical; details: preparation of dosing formulation for the diuresis experiment
Text: In this experiment, the solubility of the test compound 1 was very good. There was no delamination phenomenon. […] After fully grinding, the solubility improved. […] Moreover, the effect was dose-dependent for each dose of the test compound 1 and the positive control drug.

SD rats = test: Diuretic efficacy of ROMK inhibitors in SD rats; assay type: in vivo, rat; details: for urinary sodium excretion increase compared with blank control group / urinary potassium compared with normal control group: 4 h; for urine output increase compared with blank control group: total urine in 4 h; for urinary potassium compared with normal control group / serum potassium change / serum sodium change: 0.03 and 0.1 mg/kg i.g. once; for serum potassium change / serum sodium change: P>0.05
Experimental: The diuretic efficacy of compound 1 and positive control drug of ROMK inhibitor on SD rats was evaluated.
Male SD rats were purchased from SINO-BRITSH SIPPR/BK LAB. ANIMAL LTD., CO (Shanghai, China, Certificate No. 2008001647752, License SCXK (Shanghai) 2013-0016). The rats were 120-130 g, and fed at 5/cage, in a 12/12 hours light/dark cycle regulation, at a constant temperature of 23±1° C., humidity of 50˜60%, and free access to water and food. The male SD rats were acclimated to this condition for 7 days before their use in the diuresis experiment.
The experiment was carried out according to the method disclosed in PCT Patent Application Publication WO2010129379A1 After adaptive feeding, the rats were placed in metabolism cages and fasted overnight. The rats were weighed and randomly divided into the following groups: blank control group, compound 1 tested drug 0.03 mg/kg group and 0.1 mg/kg group, and the positive control group 0.03 mg/kg and group 0.1 mg/kg, with 10 rats for each group. Each rat was intragastrically administered each compound (ig, 1 ml/kg). The rats in the blank control group were fed with the corresponding solvent. After intragastric administration, the rats were placed in the normal cage. After 30 min, 25 ml/kg normal saline was given. Rats were put into the metabolic cages, and fasting for food and water began immediately. The total urine volume in 4 h was collected and measured. The urinary sodium and urinary potassium excretion in 4 h were also measured. The orbital serum was collected after the collection of urine to test the serum sodium and serum potassium concentrations.
The experimental data were expressed as mean±standard deviation (S.D.). The data was statistically compared using the t test of excel.

human ROMK channel = human ROMK channel (Homo sapiens (Human), UniProt P48048); test: FluxOR potassium ion channel assay, human ROMK/HEK293 cells; assay type: cell-based
Experimental: (§1) The method described hereafter was used for determining the inhibitory activity of the present compounds on human ROMK and rat ROMK channels.
(1) FluxOR™ potassium ion channel assay (F10016, Invitrogen)
(3) FlexStation3 microplate reader (Molecular Devices)
(4) Human ROMK/HEK293 cell: HEK293 cell line stably expressing the ROMK channel transfected by human ROMK cDNA (NCBI SEQ ID NO. NM-000220.4)
(§2) The inhibitory activity of the present compounds on human ROMK or rat ROMK channel was tested by the assay described above.

rat ROMK channel = rat ROMK channel (Rattus norvegicus (Rat), UniProt P35560); test: FluxOR potassium ion channel assay, rat ROMK/HEK293 cells; assay type: cell-based
Text: as §1
(5) Rat ROMK/HEK293 cell: HEK293 cell line transfected by rat ROMK cDNA (NCBI SEQ ID NO. NM-017023.1) stably expressing the ROMK channel
The above procedures were repeated, except for replacing human ROMK/HEK293 cells with rat ROMK/HEK 293 cells, to determine the inhibition IC50 of the present compounds on rat ROMK channel.
as §2

[2] = Pharmacokinetics assay in SD rats, intragastric administration; assay type: in vivo; details: both sexes, Sprague-Dawley, rat, plasma, oral 5 mg/kg
Experimental: Rats were used as test animals. The drug concentration in plasma at different time points was determined by LC/MS/MS after administration of the compounds to rats. The pharmacokinetic behavior of the present compounds was studied and evaluated in rats.
Four (4) healthy adult Sprague-Dawley (SD) rats, half male and half female, were purchased from SINO-BRITSH SIPPR/BK LAB. ANIMAL LTD., CO, with Certificate No.: SCXK (Shanghai) 2008-0016.
The appropriate amount of the test compounds was weighed, and added with 0.5% CMC-Na to a final volume to prepare a 0.5 mg/mL suspension by ultrasonication.
Following fasting overnight, 4 SD rats, half male and half female were administered intragastrically a dose of 5.0 mg/kg and an administration volume of 10 mL/kg.
Blood (0.1 mL) was sampled from orbital sinus before administration and 0.5 h, 1.0 h, 2.0 h, 4.0 h, 6.0 h, 8.0 h, 11.0 h, and 24.0 h after administration. The samples were stored in EDTA anticoagulation tubes, and centrifuged for 10 minutes at 3,500 rpm to separate the blood plasma. The plasma samples were stored at −20° C. The rats were fed 2 hours after administration.
The plasma concentration of the test compounds in rats after intragastric administration was determined by LC-MS/MS. Plasma samples were analyzed after pretreatment by protein precipitation.

ROMK potassium channel = ROMK potassium channel (Homo sapiens (Human), UniProt P48048); test: Electrophysiological manual patch clamp on ROMK potassium channel (human ROMK/HEK293 cells); assay type: cell-based
Text: The experiment was designed to test the effect of compounds on ROMK potassium channel in HEK 293 in vitro. ROMK potassium channel is stably expressed on the HEK293 cells of the present application. After the potassium ion current was stabilized, the effect of the present compound on the potassium channel was obtained by comparing the potassium current obtained before and after the use of the present compound at different concentrations.
(2) Human ROMK/HEK293 cell: HEK293 cell line stably expressing the ROMK channel transfected by human ROMK cDNA (NCBI SEQ ID NO. NM-000220.4);
(3) Extracellular fluid (mM): NaCl, 137; KCl, 4; CaCl2, 1.8; MgCl2, 1; HEPES, 10; glucose, 10; pH 7.4 (NaOH titration); and
(4) Intracellular fluid (mM): K Aspartate, 130; MgCl2, 5; EGTA 5; HEPES, 10; Tris-ATP, 4; pH 7.2 (KOH titration).
Test compounds were dissolved in dimethyl sulfoxide (DMSO) and then stocked at room temperature. […]
A manual patch clamp system was used for whole-cell current record in this experiment. […] After the ROMK potassium current recorded in the above steps was stabilized under continuous perfusion with extracellular liquid in the recording bath, the drug to be tested was perfused until the inhibition of the drug on the ROMK current reached a steady state. […]
The data were analyzed by HEKA Patchmaster, XLFit and Graphpad Prism data analysis software.

rat ROMK channel, sequence (P35560 whole entry): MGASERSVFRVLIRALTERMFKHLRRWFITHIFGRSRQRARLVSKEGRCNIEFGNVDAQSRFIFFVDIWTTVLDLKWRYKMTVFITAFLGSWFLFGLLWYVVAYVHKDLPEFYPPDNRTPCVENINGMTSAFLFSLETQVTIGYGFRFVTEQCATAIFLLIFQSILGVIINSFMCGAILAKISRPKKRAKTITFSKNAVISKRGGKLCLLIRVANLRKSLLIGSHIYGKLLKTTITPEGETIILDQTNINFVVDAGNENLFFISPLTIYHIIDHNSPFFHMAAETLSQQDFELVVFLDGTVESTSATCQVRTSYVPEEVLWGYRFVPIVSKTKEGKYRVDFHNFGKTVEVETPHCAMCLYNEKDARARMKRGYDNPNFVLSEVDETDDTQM
human ROMK channel, sequence (P48048 whole entry): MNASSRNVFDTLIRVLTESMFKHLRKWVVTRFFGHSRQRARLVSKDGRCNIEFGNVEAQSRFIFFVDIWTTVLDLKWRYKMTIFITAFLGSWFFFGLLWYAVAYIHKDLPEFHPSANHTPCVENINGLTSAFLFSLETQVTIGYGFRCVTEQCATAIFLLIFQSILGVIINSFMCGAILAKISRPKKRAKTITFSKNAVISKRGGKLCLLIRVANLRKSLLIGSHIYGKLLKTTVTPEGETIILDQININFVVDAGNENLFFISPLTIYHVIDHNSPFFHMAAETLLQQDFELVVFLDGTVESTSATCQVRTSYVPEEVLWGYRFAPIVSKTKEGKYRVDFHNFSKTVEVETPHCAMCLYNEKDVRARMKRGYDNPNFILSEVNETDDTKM
ROMK potassium channel, sequence (P48048 whole entry): as above

Row | solubility (in words) [1] | serum potassium change (SD rats) | serum sodium change (SD rats) | IC50 (human ROMK channel) [nM] | IC50 (rat ROMK channel) [nM] | Vd/F ([2]; read-out: Apparent Distribution Volume Vz/F) [L/kg] | AUC ([2]; read-out: Area Under Curve AUC) [ng·h/mL] | CL/F ([2]; read-out: Clearance CLz/F) [mL/min/kg] | MRT ([2]; read-out: Mean Residence Time MRT) [h] | Cmax ([2]; read-out: Plasma Conc. Cmax) [ng/mL] | IC50 (ROMK potassium channel) [nM] | SMILES | urinary sodium excretion increase compared with blank control group (SD rats; 0.03 mg/kg i.g. once) [times] | urine output increase compared with blank control group (SD rats; 0.03 mg/kg i.g. once) [times] | urinary sodium excretion increase compared with blank control group (SD rats; 0.1 mg/kg i.g. once) [times] | urine output increase compared with blank control group (SD rats; 0.1 mg/kg i.g. once) [times] | urinary potassium compared with normal control group (SD rats)
1 | very good | changed a little | changed a little | 40 | 192 | 3.02 ± 0.841 | 9280 ± 3050 | 9.82 ± 3.5 | 5.51 ± 0.75 | 1330 ± 388 | 18.7 | COc1cc(C(=O)NC2CCN(C[C@H](O)c3ccc4c(c3C)COC4=O)CC2)ncc1C#N [Example 1, (R)-5-cyano-N-(1-(2-hydroxy-2-(4-methyl-1-oxo-1,3-dihydroisobenzofuran-5-yl)ethyl)piperidin-4-yl)-4-methoxypicolinamide] | 3.12 | 2.76 | 3.31 | 3.22 | slightly elevated, but not statistically significant
2 | poor solubility | changed a little | changed a little | – | – | – | – | – | – | – | – | Cc1cc(C(=O)NC2CCN(C[C@H](O)c3ccc4c(c3C)COC4=O)CC2)ncc1C#N [positive control drug, reference compound] | 1.57 | 1.41 | 1.65 | 1.46 | slightly elevated, but not statistically significant
3 | – | – | – | 28 | 89 | – | – | – | – | – | – | CCOc1cc(C(=O)NC2CCN(C[C@H](O)c3ccc4c(c3C)COC4=O)CC2)ncc1C#N [Example 2, (R)-5-cyano-4-ethoxy-N-(1-(2-hydroxy-2-(4-methyl-1-oxo-1,3-dihydroisobenzofuran-5-yl)ethyl)piperidin-4-yl)picolinamide] | – | – | – | – | –
